US8697692B2, “Pyrrolo [3,2-c] pyridine-4-one 2-indolinone protein kinase inhibitors” (Shanghai Hengrui Pharmaceutical Co., Ltd., priority 2006, dated 2014)
Like-named read-outs stand apart in the source and are kept apart here.

Columns and labels:
[1] = target: T1, HER-2/ErbB2 kinase (Homo sapiens, UniProt P04626); assay: HER-2 Kinase Assay (ELISA); assay type: biochemical; conditions: 20 μM ATP, 25° C. 60 minutes
T1 construct: purchased Invitrogen corporation #PV3366
Protocol: An enzyme linked immunosorbent assays (ELISA) was conducted to measure the kinase activity of HER-2 in vitro.
a. Wash Buffer (PBS-T Buffer): 1×PBS (137 mM NaCl; 2.7 mM KCl, 4.3 mM Na2HPO4, 1.4 mM KH2PO4, adjust the pH to 7.2) and 0.05% Tween-20.
(§1) b. 1% Bovine Serum Albumin (BSA, Calbiochem #136593) in PBS-T.
c. Stop Buffer: 50 mM EDTA, pH 8.0.
d. DELFIA® Europium-labeled Anti-mouse IgG (PerkinElmer Life Sciences #AD0124).
e. DELFIA® Enhancement Solution (PerkinElmer Life Sciences #1244-105).
f. DELFIA® Streptavidin coated, 96-well, yellow plate (PerkinElmer Life Sciences #AAAND-0005).
g. HER-2/ErbB2 kinase (Invitrogen corporation #PV3366).
(§2) h. 10 mM ATP solution (Cell signaling technology #9804).
i. FLT3 (Tyr589) Biotinylated Peptide (Cell signaling technology #1305).
(§3) j. Phospho-Tyrosine Mouse mAb (P-Tyr-100) (Cell signaling technology #9411).
(§4) k. HTScan™ Tyrosine Kinase Buffer (4×)
(§5) (Cell signaling technology #9805).
(§6) l. 1.25 M DTT (1000×) (Cell signaling technology).
(§7) The following protocol was used:
1. Dilute test compound with DMSO to the desired final assay concentration. Add 1 μl test compound for every assay, to the negative control.
2. Dilute 6 μM substrate peptide (Tyr589) 1:1 with dH2O, add 15 μl to every assay.
3. Immediately transfer HER-2 enzyme from −80° C. to ice. Allow enzyme to thaw on ice.
4. Take 4.5 μg HER-2 enzyme to the enzyme tube.
(§8) 5. Add 10 μl of DTT (1.25 M) to 2.5 ml of 4×HTScan™ Tyrosine Kinase Buffer (240 mM HEPES pH 7.5, 20 mM MgCl2, 20 mM MnCl2, 12 μM Na3VO4) to make DTT/Kinase buffer.
(§9) 6. Transfer 0.75 ml of DTT/Kinase buffer to each enzyme tube to make 4× reaction cocktail. Add 7.5 μl 4× reaction cocktail to every assay.
7. Add 4 μl ATP (10 mM) to 496 μl dH2O, take 7.5 μl for every assay. Final Assay Conditions for a 30 μl Reaction
(§10) Incubate reaction tube at 25° C. for 60 minutes. 9. Add 30 μl/assay stop buffer (50 mM EDTA, pH 8.0) to stop the reaction. 10. Transfer 25 μl of each reaction and 75 μl dH2O/well to a 96-well streptavidin coated plate and incubate, with shaking at room temperature for 60 minutes. 11. Wash three times with 200 μl/well PBS-T buffer. Pat plate on paper towel to remove excess liquid. 12. Dilute primary antibody, Phospho-Tyrosine mAb (P-Tyr-100), 1:1000 in PBS-T buffer with 1% BSA. Add 100 μl diluted primary antibody to each well. 13. Incubate, with shaking at room temperature for 60 minutes. 14. Wash as described above in step 11. 15. Dilute Europium labeled anti-mouse IgG 1:500 in PBS-T buffer with 1% BSA. Add 100 μl diluted antibody to each well. 16. Incubate, with shaking at room temperature for 30 minutes. 17. Wash five times with 200 μl/well PBS-T buffer. Pat plate on paper towel to remove excess liquid. 18. Add 100 μl/well DELFIA® Enhancement Solution. 19. Incubate, with shaking at room temperature for 5 minutes. 20. Detect 615 nm fluorescence emission with appropriate Time-Resolved Plate Reader.
(§11) Calculate the inhibition rate: IR (%)=100−100*(X−B)/(N−B)
(§12) X=the fluorescence value of the well contained test compound
(§13) The IC50 value can be derived from the IRs of compounds at different concentration gradients.

[2] = test system: A431 cell; assay: Cell Proliferation Inhibition EGFR Assay (SRB method); assay type: cell-based, homo sapient; conditions: Homo sapiens, read-out: IC50 (A431)
Outline: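 A431 cells grown to ~85% confluence, then exposed 72 hours at 37° C to 6 to 7 serial concentrations of compound in DMEM/F12 + 10% FBS, final DMSO ≤0.5%. Growth measured by TCA fixation and sulforhodamine B staining; IC50 calculated from inhibition rates.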

[3] = target: T2, EGFR kinase (Homo sapiens, UniProt P00533); assay: EGFR Kinase Assay; assay type: biochemical; conditions: 20 μM ATP, 25° C. 45 minutes
T2 construct: purchased Cell signaling technology #7908
T2 sequence (P00533 25-1210): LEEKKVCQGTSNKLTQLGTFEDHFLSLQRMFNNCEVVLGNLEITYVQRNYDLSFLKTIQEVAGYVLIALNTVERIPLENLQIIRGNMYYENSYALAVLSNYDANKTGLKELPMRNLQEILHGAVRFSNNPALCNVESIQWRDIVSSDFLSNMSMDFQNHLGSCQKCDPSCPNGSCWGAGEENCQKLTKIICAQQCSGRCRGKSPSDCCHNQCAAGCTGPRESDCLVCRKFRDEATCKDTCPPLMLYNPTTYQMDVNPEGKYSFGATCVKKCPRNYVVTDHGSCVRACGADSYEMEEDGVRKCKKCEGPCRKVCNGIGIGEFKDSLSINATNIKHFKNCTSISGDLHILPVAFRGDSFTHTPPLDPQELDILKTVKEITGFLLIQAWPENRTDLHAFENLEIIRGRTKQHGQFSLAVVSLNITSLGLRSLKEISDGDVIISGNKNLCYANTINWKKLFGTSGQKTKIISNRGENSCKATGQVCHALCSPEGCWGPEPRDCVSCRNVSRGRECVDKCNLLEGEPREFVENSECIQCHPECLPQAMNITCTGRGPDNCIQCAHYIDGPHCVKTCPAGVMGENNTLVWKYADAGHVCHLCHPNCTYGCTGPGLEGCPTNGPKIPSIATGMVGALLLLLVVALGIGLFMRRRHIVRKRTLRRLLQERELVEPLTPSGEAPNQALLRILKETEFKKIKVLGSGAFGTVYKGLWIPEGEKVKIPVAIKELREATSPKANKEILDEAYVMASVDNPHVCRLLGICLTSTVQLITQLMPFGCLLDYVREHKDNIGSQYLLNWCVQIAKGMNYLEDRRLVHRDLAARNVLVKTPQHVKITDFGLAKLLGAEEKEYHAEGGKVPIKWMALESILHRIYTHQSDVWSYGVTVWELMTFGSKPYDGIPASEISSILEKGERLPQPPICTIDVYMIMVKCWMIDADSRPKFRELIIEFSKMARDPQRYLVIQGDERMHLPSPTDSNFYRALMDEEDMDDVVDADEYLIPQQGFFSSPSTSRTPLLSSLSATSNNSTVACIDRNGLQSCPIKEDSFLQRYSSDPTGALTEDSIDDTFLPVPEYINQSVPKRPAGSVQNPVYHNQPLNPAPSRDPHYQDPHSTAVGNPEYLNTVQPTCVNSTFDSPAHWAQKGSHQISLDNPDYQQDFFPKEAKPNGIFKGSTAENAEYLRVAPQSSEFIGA
Protocol: EGFR kinase activity in vitro was measured as described below:
a. Wash Buffer (PBS-T Buffer): 1×PBS (137 mM NaCl, 2.7 mM KCl, 4.3 mM Na2HPO4, 1.4 mM KH2PO4, adjust the pH to 7.2) and 0.05% Tween-20.
as §1
c. Stop Buffer: 50 mM EDTA, pH 8.0
d. DELFIA® Europium-labeled Anti-mouse IgG (PerkinElmer Life Sciences #AD0124)
e. DELFIA® Enhancement Solution (PerkinElmer Life Sciences #1244-105)
f. DELFIA® Streptavidin coated, 96-well, yellow plate (PerkinElmer Life Sciences #AAAND-0005)
g. EGFR kinase (supplied in 50 mM Tris-HCl (pH 8.0), 100 mM NaCl, 5 mM DTT, 15 mM reduced glutathione and 20% glycerol. Cell signaling technology #7908).
as §2
i. PTP1B (Tyr66) Biotinylated Peptide (Cell signaling technology #1325).
as §3, §4, §5, §6, §7
1. Dilute test compound with DMSO to the desired final assay concentration.
2. Dilute 6 μM substrate peptide (Tyr66) 1:1 with dH2O, add 15 μl to every assay.
3. Immediately transfer EGFR enzyme from −80° C. to ice. Allow enzyme to thaw on ice.
4. Take 3 μg EGFR enzyme to the enzyme tube.
as §8, §9
7. Add 4 μl ATP (10 mM) to 496 μl dH2O, take 7.5 μl for every assay.
Final Assay Conditions for a 30 μl Reaction
as §10, with “C. for 45 minutes. 9.” for “C. for 60 minutes. 9.”
as §11, §12, §13

[4] = test system: HUVEC cell; assay: Cell Proliferation Inhibition VEGF-R2 Assay (SRB method); assay type: cell-based, homo sapient; conditions: Homo sapiens; HUVEC cells, 72 hours exposure, Sulforhodamine B; read-out: IC50 (VEGFR/HUVEC)
Text: The following in vitro assay may be used to determine the level of activity and effect of different compounds of the present invention on the proliferation inhibition (cell toxic) of endothelium growth factor receptor (VEGFR) high expressing homo […] cancer cell-HUVEC cell. The cellular assay described here measure the compounds of their anti-angiogenesis and proliferation inhibition activity and effect through […] on the cancer cells in vitro. The effect and activity is represented by the IC50 value that kills the cancer cell. […] The homo […] highly express […] are chosen and seeded to 96-well cell culture plate at a suitable concentration (exp 5000 cells/ml medium). The cells then are cultured in carbon dioxide (CO2) incubator till when they confluence to about 85%. Then, the cell culture medium is replaced by fresh one with tested compounds added in it at serial concentrations (general 6 to 7 concentrations). Then the cells are put back to the culture and cultured for continuous 72 hours. 72 hours later, the cell exposed to compounds and control cell are assayed for their proliferation using Sulforhodamine B (SRB) method. […] Dimethyl sulfoxide (Sinophma chemical reagent company, catalog No. T20050806) • b. HUVEC cells (Purchased from Institute of biochemistry and cell biology) • c. […] Acetic Acid (Sinophma chemical reagent company, Catalog No. T20060508) • l. Trichloroacetic Acid (Sinophma chemical reagent company, Catalog No. T20060305) • m. […] Class II A/B3 Biological safety cabinet (ThermoForma Catalog No. HB0053-03) • o. […] Centrifuge (Fisher Scientific Marathon 8 k, Catalog No. 0027-02) • q. Novastar Plate reader (BMG Labtech, Catalog No. 700-0081) • r. […] Growing seeded 96-well plates at 37° C., 5% CO2, till 85% confluence. • 4. Prepare compounds stock solution, using DMSO solve candidate compounds to a concentration of 20 mM. […] Use cell culture medium (in this case, DMEM/F12+10% FBS) to dilute the compounds solution prepared above. Each DMSO serial concentration compound solution is diluted by 20 times with culture medium by adding 5 μl DMSO compound solution to 95 μl culture medium, then mix well by vortex. […] After HUVEC cell has attached to the dish bottom and confluence about 85%, change the culture medium with fresh DMEM/F12 plus 10% FBS. Each well added 180 μl medium, then add 20 μl medium solution of tested compounds prepared at step 5 to each well. For control group cell, add 20 μl culture medium containing 0.5% pure DMSO. […] Each 96-well plate, we can test 3 compounds with a control cell group. • 7. Put the culture plates back to incubator, culture for 72 hours at 37° C., 5% CO2. • 8. 72 hours later, remove cultures from incubator into sterile work area. • 9. Prepare fixative (50% Trichloroacetic Acid-TCA) by adding reagent grade water to the TCA, fix the cells by gently layering 50 μl of cold TCA solution on top of the growth medium. • 10. Incubate plates for 1 hour at 4° C. and then rinse with water several times to remove TCA, serum proteins, etc. Plates are air dried and stored until use. Bland background optical density is measured in wells incubated with growth medium without cells. • 11. Use 10% acetic acid solution to prepare 0.4% Sulforhodamine B solution. Add 50 μl sulforhodamine B solution to each well of 96-well plates. • 12. Allow cells to stain for 30 minutes. • 13. Prepared the wash solution of […] acetic acid. At the end of the staining period, the stain is removed and the cells rinsed quickly with 1% acetic acid. Repeat until unincorporated dye is removed. Keep wash times to a minimum to reduce desorption of protein-bound dye. After being rinsed, the cultures are air dried until no moisture is visible. • 14. The incorporated dye is then solubilized in a volume of Sulforhodamine B assay Solubilization solution (10 mM Tris) equal to the original volume of culture medium. Allow cultures to stand for 5 minutes at room temperature.

[5] = A-431, A431 cells, 72 hours exposure, Sulforhodamine B

T1 sequence (P04626 23-1255): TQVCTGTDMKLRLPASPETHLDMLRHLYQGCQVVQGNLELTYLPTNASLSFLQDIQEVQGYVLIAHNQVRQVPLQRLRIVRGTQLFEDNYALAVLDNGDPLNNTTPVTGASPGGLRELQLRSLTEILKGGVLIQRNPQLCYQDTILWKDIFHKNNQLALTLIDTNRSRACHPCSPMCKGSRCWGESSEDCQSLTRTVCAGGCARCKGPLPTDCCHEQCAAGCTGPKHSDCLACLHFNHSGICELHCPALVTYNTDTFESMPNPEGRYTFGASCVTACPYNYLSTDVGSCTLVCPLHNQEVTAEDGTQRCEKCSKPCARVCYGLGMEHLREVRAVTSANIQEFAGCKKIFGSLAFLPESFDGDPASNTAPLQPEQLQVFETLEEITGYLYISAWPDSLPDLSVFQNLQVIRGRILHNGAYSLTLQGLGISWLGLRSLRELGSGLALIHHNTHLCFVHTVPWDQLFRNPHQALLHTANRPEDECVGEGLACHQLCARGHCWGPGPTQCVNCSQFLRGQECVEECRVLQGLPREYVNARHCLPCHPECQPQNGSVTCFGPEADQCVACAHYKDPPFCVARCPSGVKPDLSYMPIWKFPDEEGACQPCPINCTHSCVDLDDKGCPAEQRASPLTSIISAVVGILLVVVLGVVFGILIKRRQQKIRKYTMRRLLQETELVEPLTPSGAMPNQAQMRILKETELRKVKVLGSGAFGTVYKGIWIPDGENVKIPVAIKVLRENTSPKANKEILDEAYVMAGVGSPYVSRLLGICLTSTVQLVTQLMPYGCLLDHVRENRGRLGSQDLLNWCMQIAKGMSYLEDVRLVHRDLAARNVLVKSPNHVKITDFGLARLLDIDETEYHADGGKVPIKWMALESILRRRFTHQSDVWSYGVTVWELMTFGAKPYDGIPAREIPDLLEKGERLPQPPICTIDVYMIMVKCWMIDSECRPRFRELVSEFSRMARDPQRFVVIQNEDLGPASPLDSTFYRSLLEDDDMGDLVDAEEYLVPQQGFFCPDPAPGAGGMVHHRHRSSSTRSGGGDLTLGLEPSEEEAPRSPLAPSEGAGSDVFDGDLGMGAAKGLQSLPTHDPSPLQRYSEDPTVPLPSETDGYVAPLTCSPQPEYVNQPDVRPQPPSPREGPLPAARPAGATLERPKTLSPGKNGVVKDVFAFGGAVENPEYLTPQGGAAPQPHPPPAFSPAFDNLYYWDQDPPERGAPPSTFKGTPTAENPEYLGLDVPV

IC50 [1] | IC50 [2, 5] | Structure (SMILES) | IC50 [3] | IC50 ([2]; A-431, 72 h) | IC50 [4]
680 nM | 180 nM | Cc1c(/C=C2\C(=O)Nc3cccc(-c4cccc(F)c4)c32)[nH]c2c1C(=O)N(CCN1CCCCC1)CC2 [Example 64, 2-[4-(3-Fluoro-phenyl)-2-oxo-1,2-dihydro-indol-3-ylidenemethyl]-3-methyl-5-(2-piperidin-1-yl-ethyl)-1,5,6,7-tetrahydro-pyrrolo[3,2-c]pyridin-4-one] | – | – | –
36100 nM | – | Cc1c(/C=C2\C(=O)Nc3cccc(Br)c32)[nH]c2c1C(=O)N(CCN1CCOCC1)CC2 [Example 49, 2-(4-Bromo-2-oxo-1,2-dihydro-indol-3-ylidenemethyl)-3-methyl-5-(2-morpholin-4-yl-ethyl)-1,5,6,7-tetrahydro-pyrrolo[3,2-c]pyridin-4-one] | – | – | –
– | – | CCN(CC)CCN1CCc2[nH]c(/C=C3\C(=O)Nc4ccc(Cl)cc43)c(C)c2C1=O [Example 2, 2-(5-Chloro-2-oxo-1,2-dihydro-indol-3-ylidenemethyl)-5-(2-diethylamino-ethyl)-3-methyl-1,5,6,7-tetrahydro-pyrrolo[3,2-c]pyridin-4-one] | 290 nM | 1040 nM | –
– | – | O=C1Nc2ccc(Br)cc2/C1=C/c1[nH]c2c(c1-c1ccccc1)C(=O)NCC2 [Example 41, 2-(5-Bromo-2-oxo-1,2-dihydro-indol-3-ylidenemethyl)-3-phenyl-1,5,6,7-tetrahydro-pyrrolo[3,2-c]pyridin-4-one] | 6010 nM | – | 220 nM
– | – | CCN(CC)CCN1CCc2[nH]c(/C=C3\C(=O)Nc4ccc(F)cc43)c(C)c2C1=O [Example 1, 5-(2-Diethylamino-ethyl)-2-(5-fluoro-2-oxo-1,2-dihydro-indol-3-ylidenemethyl)-3-methyl-1,5,6,7-tetrahydro-pyrrolo[3,2-c]pyridin-4-one] | 280 nM | 1090 nM | –
– | – | CCN(CC)CCN1CCc2[nH]c(/C=C3\C(=O)Nc4ccc(Br)cc43)c(C)c2C1=O [Example 3, 2-(5-Bromo-2-oxo-1,2-dihydro-indol-3-ylidenemethyl)-5-(2-diethylamino-ethyl)-3-methyl-1,5,6,7-tetrahydro-pyrrolo[3,2-c]pyridin-4-one] | 490 nM | 1260 nM | –
– | 1310 nM | Cc1c(/C=C2\C(=O)Nc3ccc(F)cc32)[nH]c2c1C(=O)N(CCN1CCCC1)CC2 [Example 13, 2-(5-Fluoro-2-oxo-1,2-dihydro-indol-3-ylidenemethyl)-3-methyl-5-(2-pyrrolidin-1-yl-ethyl)-1,5,6,7-tetrahydro-pyrrolo[3,2-c]pyridin-4-one] | 190 nM | – | –
